According to PubChem BioAssay (NCI):
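Cultured in 96-well plates, cells were exposed to test compound for 48 hours across five concentrations. GI50 marks 50% less growth. TGI marks complete inhibition of growth.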

Key:
Experiment in all cases: inhibition of tumour cell growth, NCI panel, 48 h
A549 NSCLC = test system: A549 NSCLC
COLO 205 colon = test system: COLO 205 colon
HL-60(TB) leukemia = test system: HL-60(TB) leukemia
KM12 colon = test system: KM12 colon
NCI/ADR-RES ovarian = test system: NCI/ADR-RES ovarian
OVCAR-4 ovarian = test system: OVCAR-4 ovarian
RXF 393 renal = test system: RXF 393 renal
SF-295 CNS = test system: SF-295 CNS
SN12C renal = test system: SN12C renal
SR leukemia = test system: SR leukemia

Row | SMILES | GI50 (A549 NSCLC) [nM] | TGI (A549 NSCLC) | GI50 (COLO 205 colon) | TGI (COLO 205 colon) | GI50 (HL-60(TB) leukemia) [nM] | TGI (HL-60(TB) leukemia) | GI50 (KM12 colon) | TGI (KM12 colon) | GI50 (NCI/ADR-RES ovarian) | TGI (NCI/ADR-RES ovarian) | GI50 (OVCAR-4 ovarian) | TGI (OVCAR-4 ovarian) | GI50 (RXF 393 renal) | TGI (RXF 393 renal) | GI50 (SF-295 CNS) | TGI (SF-295 CNS) | GI50 (SN12C renal) | TGI (SN12C renal) | GI50 (SR leukemia) [nM] | TGI (SR leukemia)
1 | CC(=O)C1=C(O)C=C2Oc3c(C(=O)/C=C/c4cc(C(F)(F)F)cc(C(F)(F)F)c4)c(O)c(C)c(O)c3[C@]2(C)C1=O | 666 | 4420 nM | 527 nM | 1750 nM | 401 | 1140 nM | 658 nM | 3230 nM | 500 nM | 2930 nM | 815 nM | 11300 nM | 673 nM | 3080 nM | 627 nM | 4760 nM | 513 nM | 2020 nM | 440 | 3320 nM
2 | C[n+]1c(/C=C\C=C\N2CCCCC2)sc2ccccc21 | 413 | 3070 nM | 204 nM | 454 nM | 166 | 737 nM | 270 nM | 3020 nM | 37600 nM | > 100000 nM | 479 nM | > 42400 nM | 3480 nM | 17600 nM | 385 nM | 2360 nM | 716 nM | 21200 nM | 105 | 3080 nM
3 | COc1cc2c(cc1OC)C13CCN4C=C5CCOC6CC(=O)N2C1C6C5CC43 (stereo unspecified) | – | > 100000 nM | – | > 100000 nM | – | > 100000 nM | – | > 100000 nM | – | > 100000 nM | – | > 100000 nM | – | > 100000 nM | – | > 100000 nM | – | > 100000 nM | – | > 100000 nM
4 | Cc1ccccc1NC(=S)Nc1ccccn1 | > 100000 | > 100000 nM | > 100000 nM | > 100000 nM | > 100000 | > 100000 nM | > 100000 nM | > 100000 nM | > 100000 nM | > 100000 nM | 72500 nM | > 100000 nM | 13900 nM | > 100000 nM | > 100000 nM | > 100000 nM | > 100000 nM | > 100000 nM | > 100000 | > 100000 nM
5 | C=C1C(=O)O[C@H]2[C@H]1CC/C(CNC(=O)/C=C/c1ccc(Br)cc1)=C\CC[C@@]1(C)O[C@@H]21 | 2430 | 8720 nM | 987 nM | 2750 nM | 744 | 7280 nM | 1870 nM | 3800 nM | 2590 nM | 10500 nM | 1370 nM | 2960 nM | 260 nM | 1400 nM | 2160 nM | 5810 nM | 1220 nM | 3580 nM | 255 | –
6 | COc1cccc2c1C(=O)c1c(O)c3c(c(O)c1C2=O)CC(O)(C(C)=O)CC3OC1CC(N)C(O)C(C)O1 (stereo unspecified) | – | 1.85 µg/mL | 0.114 µg/mL | 0.334 µg/mL | – | 0.0356 µg/mL | 0.0445 µg/mL | 0.776 µg/mL | 3.52 µg/mL | 25 µg/mL | 0.0742 µg/mL | 0.692 µg/mL | 0.263 µg/mL | 1.48 µg/mL | 0.0286 µg/mL | 0.168 µg/mL | 0.0177 µg/mL | 3.98 µg/mL | – | 0.152 µg/mL
